{"source": "patent US20110319484A1", "about": "“NEUROPROTECTIVE COMPOUNDS” (Parque Tecnologico de Ciencias de la Salud, priority 2009, published 2011)", "key": {"cerebral cortex of mice": {"test_system": "cerebral cortex of mice", "experiment": "Neuroprotection in the cerebral cortex (lateral entorhinal and amygdaloid nuclei) of mice after kainate", "assay_type": "in vivo, mice (FVB/NHan)", "details": "KA 25 mg/kg i.p., NST0005 50 mg/kg i.p. daily", "experimental": "All the animals included during the experimental process were 12-week old males of the FVB/NHan strain. The experiments were carried out strictly following the Guidance on the Operation of Animals (Scientific Procedures, Act. 1986). The animals had their respective quarantine period and were treated with maximum precaution to minimize possible contaminations for inoculations and handling.\nSixteen animals were used in this assay and the treatments were all carried out by intraperitoneal (i.p.) route with a volume of 100 μl, according to the following regimens: • i) PBS+PBS+PBS regimen: 4 animals were initially treated with PBS with a daily dose for 2 days, on the second day the animals were inoculated with a new dose of PBS and for the next 7 days with a daily dose of PBS. • ii) PBS+KA+PBS regimen: 6 animals were initially treated with PBS with a daily dose for 2 days, on the second day the animals were inoculated with a dose of kainate at 25 mg/kg and for the next 7 days with a daily dose of PBS. • iii) NST0005+KA+NST0005 regimen: 6 animals were initially treated with NST0005 with a daily dose of 50 mg/kg for 2 days, on the second day the animals were inoculated with a dose of kainate at 25 mg/kg and for the next 7 days with a daily dose of NST0005 at 50 mg/kg.\nOnce the treatment period of 7 days ended, the animals were sacrificed and the brains were dissected. […]"}, "[1]": {"test_system": "caspase 3/7 activation in SK-N-MC cells", "experiment": "Inhibition of camptothecin-induced caspase 3/7 activation (Apo-ONE kit)", "assay_type": "cell-based, human", "details": "Homo sapiens, 24 h pretreatment at 100 μg/ml, then camptothecin 50 μM 6 h", "experimental": "To that end, the inhibition caused by (1S,3R,7S,8S,8aR)-1,2,3,7,8,8a-hexahydro-3,7-dimethyl-8-[2-[(2R,4R)-tetrahydro-4-hydroxy-6-oxo-2H-pyran-2-yl]ethyl-1-naphthalenyl 2,2-dimethylpropanoate (NST0005) of apoptosis caused by the treatment with camptothecin (Campt) on the SK-N-MC cells in culture was analyzed following the working conditions specified in section 3.1. Apoptosis can be quantified by measuring effector caspase activation. Caspases (proteins belonging to the cysteine-protease group) mediate the cleavage of a series of proteins triggering the signaling cascade which leads cells to apoptosis. […] The active cellular caspases 3 or 7 cause the cleavage of the substrate, emitting fluorescence which is read by means of a fluorometer.\nThe effect of the pretreatment of the NST0005 compound at 40 and 100 μg/ml on caspase 3/7 activation caused by 50 μM of camptothecin (Campt) in the SK-N-MC cells was thus analyzed. […]\nThe cells were incubated (at 37° C. and 5% CO2) with these treatments for 6 h, after which time the lysis buffer and the substrate rhodamine 110 were added at the concentrations specified by the manufacturer; they were incubated at room temperature for 30 minutes and the cells were then frozen at −20° C. overnight. They were thawed the next day and the reading of the plate was taken in a fluorometer at 499 nm for excitation and 521 nm for emission."}}}
{"compound": "C[C@H]1C=C2C=C[C@H](C)[C@H](CC[C@@H]3C[C@@H](O)CC(=O)O3)[C@H]2[C@@H](OC(=O)C(C)(C)C)C1", "note": "[NST0005]", "values": [{"measurement": "neuritic dystrophy in the cerebral cortex (MAP2)", "setting": "cerebral cortex of mice", "value": "significantly reduces neuronal damage by neuritic dystrophy"}, {"measurement": "reactive astrogliosis in the cerebral cortex (GFAP)", "setting": "cerebral cortex of mice", "value": "significantly prevents reactive astrogliosis"}, {"measurement": "inhibition at 100 µg/mL", "setting": "[1]", "value": 33, "unit": "%"}]}
